Measurements taken from US7820025B2, “Methods of synthesizing an oxidant and applications thereof” (Ferrate Treatment Technologies, LLC, priority 2000, dated 2010).

Key:
total coliforms = details: water sources collected worldwide; cited from earlier work
biofilm = details: model condensers dosed with 10^−5 M solutions of ferrate twice a day, for 5 minutes; cited from earlier work
[1] = tested on: sulfite-reducing clostridia; details: chlorine resistant bacteria; cited from earlier work
E. coli = assay: Ferrate disinfection test of harbor waters, E. coli count; assay type: cell-based
From the text: (§1) We have conducted preliminary ferrate disinfection tests of harbor waters at two locations in the Port of Cape Canaveral, Fla. Sample A was collected at the inner Port, while Sample B was collected closer to the exit at the Port nearer to the open ocean.

aerobic spore-formers = details: chlorine resistant bacteria; cited from earlier work
Total Coliform = assay: Ferrate disinfection test of harbor waters, Total Coliform count; assay type: cell-based
From the text: as §1

virus f2 = details: low concentrations in water; cited from earlier work
Heterotrophic bacteria = assay: Ferrate disinfection test of harbor waters, Heterotrophic bacterial plate count (HPC); assay type: cell-based; details: for HPC: ferrate dose 2.0 mg/L FeO4^2−
From the text: as §1

[2] = harbor water Sample A, ferrate dose 1.0 mg/L FeO4^2−
[3] = harbor water Sample A, ferrate dose 2.0 mg/L FeO4^2−
[4] = harbor water Sample B, ferrate dose 1.0 mg/L FeO4^2−
[5] = harbor water Sample B, ferrate dose 2.0 mg/L FeO4^2−

For [O]=[Fe](=[O])([O-])[O-] [Ferrate, ferrate], the “removal of total coliforms” value (total coliforms) is given as “complete removal”, the biofilm growth (biofilm) is given as “inhibited” and the “killing of sulfite-reducing clostridia” value [1] is given as “effectively killed”. The “disinfection for E. coli (in words)” value (E. coli; both samples, dose 0.5 mg/L) was “effective in killing E. coli”, the “E. Coli” value (E. coli; harbor water Sample A, ferrate dose 0.5 mg/L FeO4^2−) was under 1 MPN/100 mL and the “E. Coli” value (E. coli; [2]) was under 1 MPN/100 mL. The “E. Coli” value (E. coli; [3]) was under 1 MPN/100 mL, the “E. Coli” value (E. coli; harbor water Sample B, ferrate dose 0.5 mg/L FeO4^2−) was under 1 MPN/100 mL and the “E. Coli” value (E. coli; [4]) was under 1 MPN/100 mL. For the same molecule, the “E. Coli” value (E. coli; [5]) was under 1 MPN/100 mL, the reduction of spore-formers (aerobic spore-formers) was “up to 3 log units” and the “total coliform level after ferrate addition (in words)” value (Total Coliform; Sample A, ferrate dose 0.5 mg/L) was “reduced to non-detectable levels”. The “Total Coliform” value (Total Coliform; harbor water Sample A (inner Port, Port of Cape Canaveral), ferrate dose 0.5 mg/L FeO4^2−) was under 1 MPN/100 mL, the “Total Coliform” value (Total Coliform; [2]) was under 1 MPN/100 mL and the “Total Coliform” value (Total Coliform; [3]) was under 1 MPN/100 mL. The “Total Coliform” value (Total Coliform; harbor water Sample B (near Port exit), ferrate dose 0.5 mg/L FeO4^2−) was under 1 MPN/100 mL, the “Total Coliform” value (Total Coliform; [4]) was under 1 MPN/100 mL and the “Total Coliform” value (Total Coliform; [5]) was under 1 MPN/100 mL. The “inactivation of virus f2” value (virus f2) was “rapidly inactivates”, the HPC (Heterotrophic bacteria; harbor water Sample A) was under 5 cfu/mL and the HPC (Heterotrophic bacteria; harbor water Sample B) was under 5 cfu/mL. For the same molecule, the “levels of Heterotrophic bacteria after ferrate (in words)” value (Heterotrophic bacteria; samples A and B, dose of approximately 2 mg/L) was “reduced to non-detectable values”.
